From US6620821B2, “HMG-CoA reductase inhibitors and method” (Bristol-Myers Squibb Company, priority 2000, dated 2003) come the findings set out here.

What is called melting point is the temperature, or range, at which the solid turns liquid. `CC(C)c1nc2c(c(-c3ccc(F)cc3)c1CC[C@@H](O)C[C@@H](O)CC(=O)[O-])CCCc1ccccc1-2.[Na+]`: the melting point fell in the range of 253 to 254 °C.
